Assay results from ChEMBL document CHEMBL1138433, “New indole alkaloids from the North Sea bacterium Vibrio parahaemolyticus Bio249” (J Nat Prod, 2003).
Calls of active or inactive are those of the source.

Key:
Assay type in all cases: functional, organism-based
[1] = tested on: Escherichia coli; assay: Antibacterial activity against Escherichia coli by agar diffusion method
[2] = tested on: Staphylococcus aureus; assay: Antibacterial activity against Staphylococcus aureus by agar diffusion method
[3] = tested on: Bacillus subtilis; assay: Antibacterial activity against Bacillus subtilis by agar diffusion method
[4] = tested on: Streptomyces viridochromogenes; assay: Antibacterial activity against Streptomyces viridochromogenes by agar diffusion method
[5] = tested on: Candida albicans; assay: Antifungal activity against Candida albicans by agar diffusion method
[6] = tested on: Rhizomucor miehei; assay: Antifungal activity against Mucor miehei by agar diffusion method

Measured: Activity

c1ccc2c(C(c3c[nH]c4ccccc34)c3c[nH]c4ccccc34)c[nH]c2c1
inactive: all assays above

CC(CC(c1c[nH]c2ccccc12)c1c[nH]c2ccccc12)c1c[nH]c2ccccc12 (centres undefined)
inactive: all assays above

c1ccc2c(Cc3c[nH]c4ccccc34)c[nH]c2c1
inactive: all assays above

CC(=O)C(C)(c1c[nH]c2ccccc12)c1c[nH]c2ccccc12
inactive: all assays above
